Reference: patent publication US8895585B2, “Nicotinamide derivative or salt thereof” (FUJIFILM Corporation, priority 2010, dated 2014)

Legend:
[1] = target: T1, glutathione S-transferase (GST)-fused full-length human Syk protein (Homo sapiens, UniProt P43405); assay: Syk enzyme assay; type: biochemical; settings: Syk enzyme assay, Test Example 1; read-out: IC50 of Syk-inhibitory activity
T1 construct: (GST)-fused full-length human Syk protein; GST (glutathione S-transferase); purchased Carna Biosciences
Method in brief: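 Baculovirus-expressed enzyme (1.2 ng) was preincubated with compound in HEPES pH 7.0/MgCl2/DTT buffer, 2 min shaking then 13 min at room temperature. Biotin-EDPDYEWPSA-NH2 (0.4 μM final) and ATP (27 μM final) were added for 40 min at room temperature. EDTA stop, streptavidin-XL/PT66-K TR-FRET at 615/665 nm gave IC50.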

THP-1 cells = assay: TNFα generation assay; type: cell-based, human; settings: Homo sapiens, THP-1, THP-1 cells; Table 22; read-out: IC50 in TNFα generation assay
Method in brief: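 THP-1 cells differentiated to macrophage-like cells with 10 ng/ml IFN-γ for 2 days, preincubated with compound 30 min at room temperature, then cultured 7 h on plates coated with human IgG (10 μg/ml). Secreted TNFα measured by ELISA or AlphaLISA.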

Structure (SMILES)	IC50 [1] [nM]	IC50 (THP-1 cells) [nM]
CCCC[C@@H](Nc1nc(Nc2ccc3c(cnn3CC)c2)c(C(N)=O)cc1F)[C@H](C)N [Example 006-388, 6-(((2S,3R)-2-aminoheptane-3-yl)amino)-2-((1-ethyl-1H-indazol-5-yl)amino)-5-fluoronicotinamide]	< 10	65 to 130
CCCC[C@@H](Nc1nc(Nc2ccc3c(cnn3CCOC)c2)c(C(N)=O)cc1F)[C@H](C)N [Example 006-389, 6-(((2S,3R)-2-aminoheptane-3-yl)amino)-5-fluoro-2-((1-(2-methoxyethyl)-1H-indazol-5-yl)amino)nicotinamide]	< 10	65 to 130
CCCC[C@@H](Nc1nc(Nc2cnc(C)c(-n3nccn3)c2)c(C(N)=O)cc1F)[C@H](C)N [Example 006-390, 6-(((2S,3R)-2-aminoheptan-3-yl)amino)-5-fluoro-2-((6-methyl-5-(2H-1,2,3-triazol-2-yl)pyridin-3-yl)amino)nicotinamide]	< 10	65 to 130
C[C@H](N)[C@@H](CC1CC1)Nc1nc(Nc2cncc(-n3cccn3)c2)c(C(N)=O)cc1F [Example 006-392, 2-((5-(1H-pyrazol-1-yl)pyridin-3-yl)amino)-6-(((2R,3S)-3-amino-1-cyclopropylbutan-2-yl)amino)-5-fluoronicotinamide]	< 10	65 to 130
COCCOc1cc(Nc2nc(N[C@H](CC3CC3)[C@H](C)N)c(F)cc2C(N)=O)ccn1 [Example 006-394, 6-(((2R,3S)-3-amino-1-cyclopropylbutan-2-yl)amino)-5-fluoro-2-((2-(2-methoxyethoxy)pyridin-4-yl)amino)nicotinamide]	< 10	65 to 130
C=C(C)C[C@@H](Nc1nc(Nc2ccc3ncccc3c2)c(C(N)=O)cc1F)[C@H](C)N [Example 006-396, 6-(((2S,3R)-2-amino-5-methylhex-5-en-3-yl)amino)-5-fluoro-2-(quinolin-6-ylamino)nicotinamide]	< 10	65 to 130
C=C(C)C[C@@H](Nc1nc(Nc2ccc3c(cnn3CC)c2)c(C(N)=O)cc1F)[C@H](C)N [Example 006-397, 6-(((2S,3R)-2-amino-5-methylhex-5-en-3-yl)amino)-2-((1-ethyl-1H-indazol-5-yl)amino)-5-fluoronicotinamide]	< 10	< 65
CCC[C@@H](Nc1nc(Nc2ccc3c(cnn3C)c2)c(C(N)=O)cc1F)[C@@H](N)CC [Example 006-398, 6-(((3S,4R)-3-aminoheptan-4-yl)amino)-5-fluoro-2-((1-methyl-1H-indazol-5-yl)amino)nicotinamide]	< 10	65 to 130
CCC[C@@H](Nc1nc(Nc2ccc3c(cnn3CCOC)c2)c(C(N)=O)cc1F)[C@@H](N)CC [Example 006-400, 6-(((3S,4R)-3-aminoheptan-4-yl)amino)-5-fluoro-2-((1-(2-methoxyethyl)-1H-indazol-5-yl)amino)nicotinamide]	< 10	< 65
CCC[C@@H](Nc1nc(Nc2ccnc(OCCOC)c2)c(C(N)=O)cc1F)[C@@H](N)CC [Example 006-401, 6-(((3S,4R)-3-aminoheptan-4-yl)amino)-5-fluoro-2-((2-(2-methoxyethoxy)pyridin-4-yl)amino)nicotinamide]	10 to 50	130 to 200
CCC[C@@H](Nc1nc(Nc2cncc(C3CC3)c2)c(C(N)=O)cc1F)[C@@H](N)CC [Example 006-402, 6-(((3S,4R)-3-aminoheptan-4-yl)amino)-2-((5-cyclopropylpyridin-3-yl)amino)-5-fluoronicotinamide]	< 10	130 to 200
CCC[C@@H](Nc1nc(Nc2cnc(C)c(-n3nccn3)c2)c(C(N)=O)cc1F)[C@@H](N)CC [Example 006-403, 6-(((3S,4R)-3-aminoheptan-4-yl)amino)-5-fluoro-2-((6-methyl-5-(2H-1,2,3-triazol-2-yl)pyridin-3-yl)amino)nicotinamide]	10 to 50	130 to 200
CCC[C@@H](Nc1nc(Nc2ccnc(OC)c2)c(C(N)=O)cc1F)[C@@H](N)CC [Example 006-404, 6-(((3S,4R)-3-aminoheptan-4-yl)amino)-5-fluoro-2-((2-methoxypyridin-4-yl)amino)nicotinamide]	< 10	130 to 200
CCCC[C@@H](Nc1nc(Nc2cc(OC)nc(OC)c2)c(C(N)=O)cc1F)[C@H](C)N [Example 006-405, 6-(((2S,3R)-2-aminoheptan-3-yl)amino)-2-((2,6-dimethoxypyridin-4-yl)amino)-5-fluoronicotinamide]	< 10	130 to 200
CCCC[C@@H](Nc1nc(Nc2ccnc(OC)c2)c(C(N)=O)cc1F)[C@H](C)N [Example 006-406, 6-(((2S,3R)-2-aminoheptan-3-yl)amino)-5-fluoro-2-((2-methoxypyridin-4-yl)amino)nicotinamide]	< 10	65 to 130
CCCC[C@@H](Nc1nc(Nc2ccnc(OCCOC)c2)c(C(N)=O)cc1F)[C@H](C)N [Example 006-407, 6-(((2S,3R)-2-aminoheptan-3-yl)amino)-5-fluoro-2-((2-(2-methoxyethoxy)pyridin-4-yl)amino)nicotinamide]	< 10	130 to 200
CCCC[C@@H](Nc1nc(Nc2cncc(C3CC3)c2)c(C(N)=O)cc1F)[C@H](C)N [Example 006-408, 6-(((2S,3R)-2-aminoheptan-3-yl)amino)-2-((5-cyclopropylpyridin-3-yl)amino)-5-fluoronicotinamide]	< 10	130 to 200
COc1cc(Nc2nc(N[C@H](CC(C)C)[C@H](C)N)c(F)cc2C(N)=O)cc(OC)n1 [Example 006-409, 6-(((2S,3R)-2-amino-5-methylhexan-3-yl)amino)-2-((2,6-dimethoxypyridin-4-yl)amino)-5-fluoronicotinamide]	< 10	130 to 200
COc1cc(Nc2nc(N[C@H](CC(C)C)[C@H](C)N)c(F)cc2C(N)=O)ccn1 [Example 006-410, 6-(((2S,3R)-2-amino-5-methylhexan-3-yl)amino)-5-fluoro-2-((2-methoxypyridin-4-yl)amino)nicotinamide]	< 10	65 to 130
COCCOc1cc(Nc2nc(N[C@H](CC(C)C)[C@H](C)N)c(F)cc2C(N)=O)ccn1 [Example 006-411, 6-(((2S,3R)-2-amino-5-methylhexan-3-yl)amino)-5-fluoro-2-((2-(2-methoxyethoxy)pyridin-4-yl)amino)nicotinamide]	< 10	130 to 200
CC(C)C[C@@H](Nc1nc(Nc2cncc(C3CC3)c2)c(C(N)=O)cc1F)[C@H](C)N [Example 006-412, 6-(((2S,3R)-2-amino-5-methylhexan-3-yl)amino)-2-((5-cyclopropylpyridin-3-yl)amino)-5-fluoronicotinamide]	< 10	130 to 200
CCCC[C@H](CN)Nc1nc(Nc2ccc3c(cnn3CCF)c2)c(C(N)=O)cc1F [Example 006-414, (R)-6-((1-aminohexan-2-yl)amino)-5-fluoro-2-((1-(2-fluoroethyl)-1H-indazol-5-yl)amino)nicotinamide]	< 10	65 to 130
CC(C)C[C@H](CN)Nc1nc(Nc2ccc3c(cnn3CCF)c2)c(C(N)=O)cc1F [Example 006-415, (R)-6-((1-amino-4-methylpentan-2-yl)amino)-5-fluoro-2-((1-(2-fluoroethyl)-1H-indazol-5-yl)amino)nicotinamide]	< 10	65 to 130
CC[C@@H](Nc1nc(Nc2ccc3c(cnn3CCF)c2)c(C(N)=O)cc1F)[C@H](C)N [Example 006-416, 6-(((2S,3R)-2-aminopentan-3-yl)amino)-5-fluoro-2-((1-(2-fluoroethyl)-1H-indazol-5-yl)amino)nicotinamide]	< 10	65 to 130
CCC[C@@H](Nc1nc(Nc2ccc3c(cnn3CCF)c2)c(C(N)=O)cc1F)[C@H](C)N [Example 006-417, 6-(((2S,3R)-2-aminohexan-3-yl)amino)-5-fluoro-2-((1-(2-fluoroethyl)-1H-indazol-5-yl)amino)nicotinamide]	< 10	65 to 130
CCCC[C@@H](Nc1nc(Nc2ccc3c(cnn3CCF)c2)c(C(N)=O)cc1F)[C@H](C)N [Example 006-418, 6-(((2S,3R)-2-aminoheptan-3-yl)amino)-5-fluoro-2-((1-(2-fluoroethyl)-1H-indazol-5-yl)amino)nicotinamide]	< 10	65 to 130
C[C@H](N)[C@@H](CC1CC1)Nc1nc(Nc2ccc3c(cnn3CCF)c2)c(C(N)=O)cc1F [Example 006-420, 6-(((2R,3S)-3-amino-1-cyclopropylbutan-2-yl)amino)-5-fluoro-2-((1-(2-fluoroethyl)-1H-indazol-5-yl)amino)nicotinamide]	< 10	65 to 130
COc1cc(Nc2nc(N[C@H](C3CC3)[C@H](C)N)c(F)cc2C(N)=O)cc(OC)n1 [Example 006-429, 6-(((1R,2S)-2-amino-1-cyclopropylpropyl)amino)-2-((2,6-dimethoxypyridin-4-yl)amino)-5-fluoronicotinamide]	< 10	65 to 130
COc1cc(Nc2nc(N[C@H](C3CC3)[C@H](C)N)c(F)cc2C(N)=O)ccn1 [Example 006-430, 6-(((1R,2S)-2-amino-1-cyclopropylpropyl)amino)-5-fluoro-2-((2-methoxypyridin-4-yl)amino)nicotinamide]	< 10	65 to 130
